Laboratory results: paper PMC4764943, “Inhibitory effect of traditional oriental medicine-derived monoamine oxidase B inhibitor on radioresistance of non-small cell lung cancer” (Scientific Reports, 2016)

Columns and labels:
[1] = molecular target: T1, MAOB (monoamine oxidase B) (Homo sapiens, UniProt P27338); experiment: ITC ([…] stoichiometry); also MAOB activity inhibition in vitro, IC50 […]; assay type: binding
T1 construct: recombinant human MAOB
T1 sequence (P27338 2-520): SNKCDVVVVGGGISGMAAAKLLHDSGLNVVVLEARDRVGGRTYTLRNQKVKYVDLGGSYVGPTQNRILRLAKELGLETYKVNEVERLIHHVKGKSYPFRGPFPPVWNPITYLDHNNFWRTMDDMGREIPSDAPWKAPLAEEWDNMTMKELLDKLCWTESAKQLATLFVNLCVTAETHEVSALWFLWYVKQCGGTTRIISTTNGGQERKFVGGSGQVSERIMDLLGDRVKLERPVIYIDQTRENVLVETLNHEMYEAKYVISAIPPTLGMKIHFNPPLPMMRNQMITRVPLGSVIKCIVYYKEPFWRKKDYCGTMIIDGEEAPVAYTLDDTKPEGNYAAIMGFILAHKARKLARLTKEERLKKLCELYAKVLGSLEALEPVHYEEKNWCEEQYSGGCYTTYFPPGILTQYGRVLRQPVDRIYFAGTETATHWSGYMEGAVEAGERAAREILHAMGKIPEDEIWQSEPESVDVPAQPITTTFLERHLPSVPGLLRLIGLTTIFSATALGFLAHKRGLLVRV

[2] = molecular target: T1, MAOB (monoamine oxidase B); experiment: ITC; assay type: binding

With `O=C(O)[C@H](O)Cc1ccc(O)c(O)c1` [danshensu, 3-(3,4-dihydroxyphenyl)-2-hydroxy-propanoic acid] the Kd [1] was 16 ± 0.8 µM.

Work on `CNCC(O)c1ccc(O)cc1` (stereo not drawn) [synephrine] yielded a Kd ([2]; read-out: Kd) of 183 ± 10.3 µM.

`COc1cc(C=O)ccc1O` [vanillin] gave a Kd [2] of 165 ± 9.1 µM.
